Series [1] concerns the target T1, PSMA (Homo sapiens, UniProt Q04609).
T1 construct: 100 μL of freshly harvested PSMA cells; endogenous in cells; host or cells: 'PSMA cells' in the method
Nature of the series: In vitro competitive binding assay to determine IC50 to PSMA. The conditions noted are these: LNCaP cells, [125I]MIP-1095 radioligand, 37° C. 1 h, mean±SD (n=4); read-out: PSMA binding affinities of cold ligands, IC50. The method, then:
In Vitro Competitive Binding Assay to Determine IC50 to PSMA
In order to determine the binding affinity, in vitro competitive binding assays were performed. The LNCaP cells were incubated with 150,000 cpm of [^125I]MIP-1095 in the presence of 10 different concentrations of competing drugs. After incubation at 37° C. for 1 h, the bound and free radioactivity were separated by vacuum filtration through GF/B filter paper using a Brandel M-24R cell harvester followed by washing twice. Non-specific binding was defined with 10 μM PMPA. The cell bound radioactivity was measured with a gamma counter, 2470 Wizard^2 (Perkin-Elmer, IL). The IC50 values were calculated by fitting the data using a nonlinear regression algorithm (GraphPad Software).
The PSMA binding affinities were determined in a competitive binding assay using LNCaP human prostate carcinoma cells and the known high affinity PSMA ligand, [^125I]MIP-1095 as the radioligand. Data are expressed as mean±SD (n=4).

The target in series [2] is T1, PSMA. Nature of the series: In vitro binding signals of 68Ga labeled ligands in LNCaP tumor homogenates. The conditions noted are these: Ga-68 radiolabeled ligands; for Total binding (TB): 37° C. 60 min; for Nonspecific binding (NSB): with 1a (PSMA11) 10 μM.
The subject of series [3] is PSMA-expressing LNCaP cells. Nature of the series: Cell binding and internalization. Type of series: cell-based, human. The conditions noted are these: 37° C. The method, then: The cellular uptake and internalization kinetics of the [^68Ga]1a, [^68Ga]5a and [^68Ga]5b were determined using PSMA-expressing LNCaP cells. Furthermore, to be able to discriminate between total cellular activity (sum of membrane-associated and internalized activity) and internalized activity, all incubations were followed by a washing step with mild acid at 4° C. to remove specifically cell-surface bound radioligand by displacement.
LNCaP cells (in 6-well plates in triplicates) were incubated in RPMI-1640 medium with [^68Ga]1a, [^68Ga]5a or [^68Ga]5b for 0-2 h at 37° C. At the indicated time, the medium was removed and the cells were washed twice and then incubated with a mild acid buffer (50 mM glycine, 150 mM NaCl, pH 3.0) at 4° C. for 5 min. The supernatant (containing cell surface-bound radioactivity) was pooled and the cell pellet (containing internalized radioactivity) was collected with filter paper and then radioactivity in supernatant and cell pellet was counted on a gamma counter.
LNCaP cells were incubated with [^68Ga]1a, [^68Ga]5a and [^68Ga]5b for up to 2 h at 37° C. to determine whether the compound is internalized by endocytosis. The cells were then washed with a mild acid buffer to remove extracellularly bound compound.
Non specific binding (NSB) was evaluated by blocking with 20 μM PMPA. Specificity of cell uptake (SB) was calculated by subtracting the respective signals resulting from PMPA blocking. Values are expressed as % of applied radioactivity bound to 10^6 cells.

Series [4] relates to LNCaP tumor bearing nude mice. Nature of the series: Biodistribution of [68Ga]labeled ligand in PSMA positive tumor bearing nude mice. Type of series: in vivo, mouse. The conditions noted are these: 1 h post-injection, i.v., n = 3. The method, then: In a dish contained 5×10^6 cells of LNCaP in 50% Matrigel (Becton Dickinson, Heidelberg, Germany) were subcutaneously inoculated into the left shoulder of male 5- to 6-week-old CD-1 nu/nu mice (Charles River Laboratories). The tumors were allowed to grow for 8 weeks until approximately 0.5 cm^3 in size.
The ^68Ga-radiolabeled compounds were injected via tail vein (25 μCi per mouse; 0.1-0.2 nmol). At 1 h after injection, the animals were sacrificed. Organs of interest were dissected and weighed. The radioactivity was measured with a gamma counter and calculated as % ID/g.

T1 sequence (Q04609 whole entry): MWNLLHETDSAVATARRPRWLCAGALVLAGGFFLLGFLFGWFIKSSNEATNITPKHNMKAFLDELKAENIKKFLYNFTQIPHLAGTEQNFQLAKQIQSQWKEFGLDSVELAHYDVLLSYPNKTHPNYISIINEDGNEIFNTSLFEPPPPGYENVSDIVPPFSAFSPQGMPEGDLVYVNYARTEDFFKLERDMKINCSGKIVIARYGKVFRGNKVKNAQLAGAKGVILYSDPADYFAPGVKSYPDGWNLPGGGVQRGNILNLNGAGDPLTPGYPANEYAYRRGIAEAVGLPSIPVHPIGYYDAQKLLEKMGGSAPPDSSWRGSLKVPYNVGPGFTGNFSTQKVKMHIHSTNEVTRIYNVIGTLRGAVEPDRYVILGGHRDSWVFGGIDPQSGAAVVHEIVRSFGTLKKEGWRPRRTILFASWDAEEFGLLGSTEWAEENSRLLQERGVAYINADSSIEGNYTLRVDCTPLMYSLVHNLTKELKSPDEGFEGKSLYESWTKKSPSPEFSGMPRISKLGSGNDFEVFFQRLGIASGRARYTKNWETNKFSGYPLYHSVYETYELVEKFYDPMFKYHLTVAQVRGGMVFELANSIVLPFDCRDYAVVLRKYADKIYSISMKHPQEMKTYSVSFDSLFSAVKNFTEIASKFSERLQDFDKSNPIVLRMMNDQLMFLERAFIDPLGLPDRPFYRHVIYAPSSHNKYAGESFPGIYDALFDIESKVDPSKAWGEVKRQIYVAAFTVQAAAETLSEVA

Consider `O=C(O)CCc1ccc2c(c1)C[N+]13CC[N+]45CC(=O)[O][Ga-3]14([O]C(=O)C3)([O]2)[O]c1ccc(CCC(=O)NCC(=O)N[C@@H](Cc2ccc(OCC(=O)N[C@@H](Cc3ccccc3)C(=O)NCCCC[C@H](NC(=O)N[C@@H](CCC(=O)O)C(=O)O)C(=O)O)cc2)C(=O)O)cc1C5` (some centres unmarked) [[^natGa]5b], for which, at PSMA [1], the IC50 – broadly, the point on the concentration scale where inhibition reaches its midpoint – amounted to 16.5 ± 3.1 nM.
Consider `O=C(O)CC[C@H](NC(=O)N[C@@H](CCCCNC(=O)CCCCCNC(=O)CCc1ccc(O)c(CN(CCN(CC(=O)O)Cc2cc(CCC(=O)N[C@H]3C(O)O[C@H](CO)[C@@H](O)[C@@H]3O)ccc2O)CC(=O)O)c1)C(=O)O)C(=O)O` (stereo partly drawn) [Compound 1b, (3S,7S)-22-(3-(((Carboxymethyl)(2-((carboxymethyl)(2-hydroxy-5-(3-oxo-3-(((3R,4R,5S,6R)-2,4,5-trihydroxy-6-(hydroxymethyl)tetrahydro-2H-pyran-3-yl)amino)propyl)benzyl)amino)ethyl)amino)methyl)-4-hydroxyphenyl)-5,13,20-trioxo-4,6,12,19-tetraazadocosane-1,3,7-tricarboxylic acid], for which, on PSMA [2], the “Specific binding (SB) SB = TB − NSB” value is on record as 8.8, the “Total binding (TB)” value was 10.8 and the “Nonspecific binding (NSB)” value came to 2.0. Moreover, the IC50 on PSMA [1] turned out to be 53.3 ± 30.9 nM.
For `C[C@H](NC(=O)CCc1ccc(O)c(CN(CCN(CC(=O)O)Cc2cc(CCC(=O)NCCCCCC(=O)NCCCC[C@H](NC(=O)N[C@@H](CCC(=O)O)C(=O)O)C(=O)O)ccc2O)CC(=O)O)c1)C(=O)O` [Compound 1d, (3S,7S)-22-(3-(((2-((5-(3-(((S)-1-Carboxyethyl)amino)-3-oxopropyl)-2-hydroxybenzyl)(carboxymethyl)amino)ethyl)(carboxymethyl)amino)methyl)-4-hydroxyphenyl)-5,13,20-trioxo-4,6,12,19-tetraazadocosane-1,3,7-tricarboxylic acid], in that order: 11.2, 12.6, 1.4 and 26.8 ± 6.3 nM.
On to `O=C(O)CC[C@H](NC(=O)N[C@@H](CCCCNC(=O)[C@H](Cc1ccccc1)NC(=O)COc1ccc(C[C@H](NC(=O)CNC(=O)C[N+]23CC[N+]45CC[N+]6(CC(=O)O)CC[N+]7(CC2)CC(=O)[O][68Ga-3]6347[O]C(=O)C5)C(=O)O)cc1)C(=O)O)C(=O)O` (some centres unmarked) [[^68Ga]5a], for which, in series [3] (5 min), the “Cell surface binding activity” value was 1.67 ± 0.24 % ID/10^6 cells and the Internalized activity amounted to 0.21 ± 0.04 % ID/10^6 cells. In series [3] (15 min), the “Cell surface binding activity” value was found to be 1.92 ± 0.24 % ID/10^6 cells and the Internalized activity stood at 1.14 ± 0.21 % ID/10^6 cells. In addition, in series [3] (30 min), the “Cell surface binding activity” value amounted to 1.96 ± 0.27 % ID/10^6 cells and the Internalized activity is on record as 2.55 ± 0.42 % ID/10^6 cells. Also, in series [3] (60 min), the “Cell surface binding activity” value amounted to 1.89 ± 0.13 % ID/10^6 cells and the Internalized activity came to 3.70 ± 0.44 % ID/10^6 cells. In addition, in series [3] (90 min), the “Cell surface binding activity” value is 2.33 ± 0.01 % ID/10^6 cells and the Internalized activity was determined as 5.40 ± 0.13 % ID/10^6 cells. Besides, in series [3] (120 min), the “Cell surface binding activity” value is 2.03 ± 0.23 % ID/10^6 cells and the Internalized activity is listed as 5.43 ± 1.20 % ID/10^6 cells. Besides, in series [4], the “Organ distribution: Blood” value was 0.36 ± 0.05 % dose/g, the “Organ distribution: Bone” value is 0.11 ± 0.04 % dose/g, the “Organ distribution: Brain” value is listed as 0.03 ± 0.01 % dose/g and the “Organ distribution: Heart” value was determined as 0.19 ± 0.04 % dose/g. In series [4], the “Organ distribution: Liver” value was found to be 0.36 ± 0.10 % dose/g, the “Organ distribution: Lung” value is recorded as 0.46 ± 0.13 % dose/g, the “Organ distribution: Muscle” value was 0.21 ± 0.15 % dose/g and the “Organ distribution: Pancreas” value worked out at 0.20 ± 0.05 % dose/g. For the same molecule, in series [4], the “Organ distribution: Skin” value turned out to be 0.33 ± 0.17 % dose/g and the “Organ distribution: Spleen” value is on record as 0.70 ± 0.38 % dose/g.
Turning to `O=C(O)CC[C@H](NC(=O)N[C@@H](CCCCNC(=O)Nc1ccc(I)cc1)C(=O)O)C(=O)O` [MIP-1095, reference compound], the IC50 at PSMA [1] turned out to be 4.6 ± 1.4 nM.
With `O=C(O)CC[C@H](NC(=O)N[C@@H](CCCCNC(=O)CCCCCNC(=O)CCc1ccc(O)c(CN(CCN(CC(=O)O)Cc2nc(CCC(=O)NCCCCCC(=O)NCCCC[C@H](NC(=O)N[C@@H](CCC(=O)O)C(=O)O)C(=O)O)ccc2O)CC(=O)O)n1)C(=O)O)C(=O)O` [Compound 3, (3S,3′S,7S,7′S)-22,22′-(6,6′-((Ethane-1,2-diylbis((carboxymethyl)azanediyl))bis(methylene))bis(5-hydroxypyridine-6,2-diyl))bis(5,13,20-trioxo-4,6,12,19-tetraazadocosane-1,3,7-tricarboxylic acid)], on PSMA [2], the “Specific binding (SB) SB = TB − NSB” value is recorded as 5.8, the “Total binding (TB)” value was found to be 10.0 and the “Nonspecific binding (NSB)” value came out at 4.2. Further, the IC50 on PSMA [1] was 132 ± 11 nM.
For the molecule `O=C(O)CC[C@H](NC(=O)N[C@@H](CCCCNC(=O)[C@H](Cc1ccccc1)NC(=O)COc1ccc(C[C@H](NC(=O)CNC(=O)c2ccccc2I)C(=O)O)cc1)C(=O)O)C(=O)O` [Compound 5d, (4S,11S,15S)-4-Benzyl-1-(4-((S)-2-carboxy-2-(2-(2-iodobenzamido)acetamido)ethyl)phenoxy)-2,5,13-trioxo-3,6,12,14-tetraazaheptadecane-11,15,17-tricarboxylic acid], the 50% inhibitory concentration (IC50) at PSMA [1] was found to be 5.3 ± 2.2 nM.
In the case of `O=C(O)CC[C@H](NC(=O)N[C@@H](CCCCNC(=O)CCCCCNC(=O)CCc1ccc(O)c(CN(CCN(CC(=O)O)Cc2cc(CCC(=O)NCCNC(=O)CN3CCN(CC(=O)O)CCN(CC(=O)O)CCN(CC(=O)O)CC3)ccc2O)CC(=O)O)c1)C(=O)O)C(=O)O` [Compound 1g, (3S,7S)-22-(3-(((carboxymethyl)(2-((carboxymethyl)(2-hydroxy-5-(3-oxo-3-((2-(2-(4,7,10-tris(carboxymethyl)-1,4,7,10-tetraazacyclododecan-1-yl)acetamido)ethyl)amino)propyl)benzyl)amino)ethyl)amino)methyl)-4-hydroxyphenyl)-5,13,20-trioxo-4,6,12,19-tetraazadocosane-1,3,7-tricarboxylic acid], at PSMA [2], the “Specific binding (SB) SB = TB − NSB” value is listed as 9.0, the “Total binding (TB)” value worked out at 10.5 and the “Nonspecific binding (NSB)” value was 1.5. Moreover, the 50% inhibitory concentration (IC50) at PSMA [1] turned out to be 70.2 ± 29.1 nM.
On the same counts, the results for `O=C(O)CC[C@H](NC(=O)N[C@@H](CCCCNC(=O)CCCCCNC(=O)CCc1ccc(O)c(CN(CCN(CC(=O)O)Cc2cc(CCC(=O)N[C@@H](CC(=O)O)C(=O)O)ccc2O)CC(=O)O)c1)C(=O)O)C(=O)O` [Compound 1e, (3S,7S)-22-(3-(((Carboxymethyl)(2-((carboxymethyl)(5-(3-(((S)-1,2-dicarboxyethyl)amino)-3-oxopropyl)-2-hydroxybenzyl)amino)ethyl)amino)methyl)-4-hydroxyphenyl)-5,13,20-trioxo-4,6,12,19-tetraazadocosane-1,3,7-tricarboxylic acid] are 13.2, 14.8, 1.6 and 29.5 ± 11 nM.
Take `O=C(O)CC[C@H](NC(=O)N[C@@H](CCCCNC(=O)[C@H](Cc1ccccc1)NC(=O)COc1ccc(C[C@H](NC(=O)CNC(=O)c2cccc(I)c2)C(=O)O)cc1)C(=O)O)C(=O)O` [Compound 5c, (4S,11S,15S)-4-Benzyl-1-(4-((S)-2-carboxy-2-(2-(3-iodobenzamido)acetamido)ethyl)phenoxy)-2,5,13-trioxo-3,6,12,14-tetraazaheptadecane-11,15,17-tricarboxylic acid]: the concentration for half-maximal inhibition (IC50) on PSMA [1] stood at 5 ± 1.9 nM.
Turning to `O=C(O)CC[C@H](NC(=O)N[C@@H](CCCCNC(=O)[C@H](Cc1ccccc1)NC(=O)COc1ccc(C[C@H](NC(=O)CNC(=O)c2ccc(F)nc2)C(=O)O)cc1)C(=O)O)C(=O)O` [Compound 5e], on PSMA [1], the IC50 was determined as 6 ± 1.8 nM.

The values above are taken from patent US10688200B2, “Urea-based prostate specific membrane antigen (PSMA) inhibitors for imaging and therapy” (Five Eleven Pharma Inc., priority 2015, dated 2020).
